Source: EP0093484A2, “Antibacterial monic acid derivatives” (BEECHAM GROUP PLC, priority 1982, dated 1983)
In brackets after ≈: the same amount, converted by molar mass.

Columns and labels:
Strep. faecalis I = test: Human bacteria, MIC by serial dilution in nutrient agar; format: cell-based; conditions: Enterococcus faecalis, nutrient agar with 5% chocolated horse blood, 18 hours at 37°C, read-out: MIC
M. bovis NCTC 10131 = test: microbe, parasite or virus in culture; format: cell-based; conditions: NCTC10131, 144 h
M. suipneumoniae JF 435 = test: Anti-mycoplasmal activity, MIC in Friis broth agarose; format: cell-based; conditions: Mesomycoplasma hyopneumoniae, JF435, 144 h, Friis broth solidified with 0.9% agarose, 6 days incubation at 37°C, read-out: MIC
Staph. aureus Oxford = test: Veterinary bacteria, MIC by two fold serial dilution in agar; conditions: Staphylococcus aureus, 18 h
Protocol: (§1) The activity of the compounds of the Examples against various organisms important in veterinary infections was determined using two fold serial dilutions in Diagnostic Sensitivity Test Agar inoculated with 10^4 organisms.

[1] = test system: M. hyosynoviae ATCC 25591; test: Anti-mycoplasmal activity, MIC in Friis broth agarose; format: cell-based; conditions: 144 h, Friis broth solidified with 0.9% agarose, 6 days incubation at 37°C, read-out: MIC
[2] = test system: Haemophilus influenzae Wy21; test: Human bacteria, MIC by serial dilution in nutrient agar; format: cell-based; conditions: nutrient agar with 5% chocolated horse blood, 18 hours at 37°C, read-out: MIC
Strep. uberis SPU1 = test: Veterinary bacteria, MIC by two fold serial dilution in agar; conditions: Streptococcus uberis, SPU1, 18 h
Protocol: as §1

[3] = test system: M. bovigenitalium ATCC 14173; test: Anti-mycoplasmal activity, MIC in Friis broth agarose; format: cell-based; conditions: 144 h, Friis broth solidified with 0.9% agarose, 6 days incubation at 37°C, read-out: MIC
[4] = test system: Staph. aureus 152 (pen. sens.); test: Veterinary bacteria, MIC by two fold serial dilution in agar; conditions: Staphylococcus aureus, 18 h
Protocol: as §1

[5] = test system: Pasteurella multocida 1633; test: Human bacteria, MIC by serial dilution in nutrient agar; format: cell-based; conditions: nutrient agar with 5% chocolated horse blood, 18 hours at 37°C, read-out: MIC
[6] = test system: Strep. suis (group D) SPS11; test: Veterinary bacteria, MIC by two fold serial dilution in agar; conditions: Streptococcus suis, 18 h
Protocol: as §1

M. suipneumoniae UCD 1 = test: Anti-mycoplasmal activity, MIC in Friis broth agarose; format: cell-based; conditions: Mesomycoplasma hyopneumoniae, UCD1, 144 h, Friis broth solidified with 0.9% agarose, 6 days incubation at 37°C, read-out: MIC
Strep. spp. 64/848-C = test: Human bacteria, MIC by serial dilution in nutrient agar; format: cell-based; conditions: nutrient agar with 5% chocolated horse blood, 18 hours at 37°C, read-out: MIC
Staph. aureus Russell = test: as above; format: cell-based; conditions: Staphylococcus aureus, nutrient agar with 5% chocolated horse blood, 18 hours at 37°C, read-out: MIC
Past. multocida PA1 = test: Veterinary bacteria, MIC by two fold serial dilution in agar; conditions: Pasteurella multocida, PA1, 18 h
Protocol: as §1

E. coli ESS = test: Human bacteria, MIC by serial dilution in nutrient agar; format: cell-based; conditions: Escherichia coli, nutrient agar with 5% chocolated horse blood, 18 hours at 37°C, read-out: MIC
[7] = test system: Corynebacterium xerosis 9755; test: as above; format: cell-based; conditions: nutrient agar with 5% chocolated horse blood, 18 hours at 37°C, read-out: MIC
[8] = test system: M. suipneumoniae NCTC 10110; test: Anti-mycoplasmal activity, MIC in Friis broth agarose; format: cell-based; conditions: Mesomycoplasma hyopneumoniae, NCTC10110, 144 h, Friis broth solidified with 0.9% agarose, 6 days incubation at 37°C, read-out: MIC
[9] = test system: M. suipneumoniae ATCC 25095; test: as above; format: cell-based; conditions: Mesomycoplasma hyopneumoniae, ATCC25095, 144 h, Friis broth solidified with 0.9% agarose, 6 days incubation at 37°C, read-out: MIC
M. pneumoniae ATCC 15492 = test: as above; format: cell-based; conditions: Mycoplasmoides pneumoniae, ATCC15492, 144 h, Friis broth solidified with 0.9% agarose, 6 days incubation at 37°C, read-out: MIC
K. aerogenes A = test: Human bacteria, MIC by serial dilution in nutrient agar; format: cell-based; conditions: Klebsiella aerogenes, nutrient agar with 5% chocolated horse blood, 18 hours at 37°C, read-out: MIC
M. suipneumoniae HK(2) = test: Anti-mycoplasmal activity, MIC in Friis broth agarose; format: cell-based; conditions: Mesomycoplasma hyopneumoniae, 144 h, Friis broth solidified with 0.9% agarose, 6 days incubation at 37°C, read-out: MIC
E. coli NCTC 10418 [10] = test: Human bacteria, MIC by serial dilution in nutrient agar; format: cell-based; conditions: Escherichia coli, NCTC10418; E. coli NCTC 10418 (human panel); nutrient agar with 5% chocolated horse blood; 18 hours at 37°C; read-out: MIC
Strep. agalactiae SPA1 = test: Veterinary bacteria, MIC by two fold serial dilution in agar; conditions: Streptococcus agalactiae, SPA1, 18 h
Protocol: as §1

M. suipneumoniae MS16 = test: Anti-mycoplasmal activity, MIC in Friis broth agarose; format: cell-based; conditions: Mesomycoplasma hyopneumoniae, 144 h, Friis broth solidified with 0.9% agarose, 6 days incubation at 37°C, read-out: MIC
Staph. aureus W2827 = test: Human bacteria, MIC by serial dilution in nutrient agar; format: cell-based; conditions: Staphylococcus aureus, nutrient agar with 5% chocolated horse blood, 18 hours at 37°C, read-out: MIC
[11] = test system: Strep. pyogenes R80/421-A; test: as above; format: cell-based; conditions: Streptococcus pyogenes, nutrient agar with 5% chocolated horse blood, 18 hours at 37°C, read-out: MIC
[12] = test system: Haemophilus influenzae Q1; test: as above; format: cell-based; conditions: nutrient agar with 5% chocolated horse blood, 18 hours at 37°C, read-out: MIC
M. suipneumoniae Str. 11 = test: Anti-mycoplasmal activity, MIC in Friis broth agarose; format: cell-based; conditions: Mesomycoplasma hyopneumoniae, 144 h, Friis broth solidified with 0.9% agarose, 6 days incubation at 37°C, read-out: MIC
Bord. bronchiseptica BO9 = test: Veterinary bacteria, MIC by two fold serial dilution in agar; conditions: Bordetella bronchiseptica, BO9, 18 h
Protocol: as §1

[13] = test system: M. suipneumoniae J2206/183b; test: Anti-mycoplasmal activity, MIC in Friis broth agarose; format: cell-based; conditions: Mesomycoplasma hyopneumoniae, 144 h, Friis broth solidified with 0.9% agarose, 6 days incubation at 37°C, read-out: MIC
M. suipneumoniae LABER = test: as above; format: cell-based; conditions: Mesomycoplasma hyopneumoniae, 144 h, Friis broth solidified with 0.9% agarose, 6 days incubation at 37°C, read-out: MIC
Sarcina lutea 8340 = test: Human bacteria, MIC by serial dilution in nutrient agar; format: cell-based; conditions: Micrococcus luteus, nutrient agar with 5% chocolated horse blood, 18 hours at 37°C, read-out: MIC
E. coli NCTC 10418 [14] = test: Veterinary bacteria, MIC by two fold serial dilution in agar; conditions: Escherichia coli, NCTC10418, 18 h
Protocol: as §1

Bacillus subtilis 6633 = test: Human bacteria, MIC by serial dilution in nutrient agar; format: cell-based; conditions: nutrient agar with 5% chocolated horse blood, 18 hours at 37°C, read-out: MIC
M. hyorhinis ATCC 23234 = test: Anti-mycoplasmal activity, MIC in Friis broth agarose; format: cell-based; conditions: Mesomycoplasma hyorhinis, ATCC23234, 144 h, Friis broth solidified with 0.9% agarose, 6 days incubation at 37°C, read-out: MIC
Strep. dysgalactiae SPD1 = test: Veterinary bacteria, MIC by two fold serial dilution in agar; conditions: Streptococcus dysgalactiae, SPD1, 18 h
Protocol: as §1

P. mirabilis 889 = test: Human bacteria, MIC by serial dilution in nutrient agar; format: cell-based; conditions: Proteus mirabilis, nutrient agar with 5% chocolated horse blood, 18 hours at 37°C, read-out: MIC
[15] = test system: Corynebacterium pyogenes CY1; test: Veterinary bacteria, MIC by two fold serial dilution in agar; conditions: CY1, 18 h
Protocol: as §1

Past. multocida PA2 = test: as above; conditions: Pasteurella multocida, PA2, 18 h
Protocol: as §1

**Q.** For `CC(=CC(=O)OCc1ccc([S+](C)[O-])cc1)CC1OCC(CC2OC2C(C)C(C)O)C(O)C1O` (stereo not shown) [Example 2, p- Methylsulphinylbenzyl monate A], which MIC (Strep. faecalis I) is on record?
**A.** 50 µg/mL (≈ 101 µM)

**Q.** And the MIC (M. bovis NCTC 10131)?
**A.** ≤ 0.01 µg/mL

**Q.** And the MIC (M. suipneumoniae JF 435)?
**A.** 0.25 µg/mL (≈ 0.503 µM)

**Q.** What about the MIC (Staph. aureus Oxford) of the same molecule?
**A.** 1.25 µg/mL (≈ 2.52 µM)

**Q.** What about the MIC [1] of the same molecule?
**A.** 0.05 µg/mL (≈ 0.101 µM)

**Q.** What about the MIC [2] of the same molecule?
**A.** 0.1 µg/mL (≈ 0.201 µM)

**Q.** And the MIC (Strep. uberis SPU1)?
**A.** 0.156 µg/mL (≈ 0.314 µM)

**Q.** And the MIC [3]?
**A.** 0.025 µg/mL (≈ 0.0503 µM)

**Q.** And the MIC [4]?
**A.** 1.25 µg/mL (≈ 2.52 µM)

**Q.** What about the MIC [5] of the same molecule?
**A.** 0.5 µg/mL (≈ 1.01 µM)

**Q.** What about the MIC [6] of the same molecule?
**A.** 2.5 µg/mL (≈ 5.03 µM)

**Q.** What about the MIC (M. suipneumoniae UCD 1) of the same molecule?
**A.** 0.25 µg/mL (≈ 0.503 µM)

**Q.** What about the MIC (Strep. spp. 64/848-C) of the same molecule?
**A.** 1 µg/mL (≈ 2.01 µM)

**Q.** And the MIC (Staph. aureus Russell)?
**A.** 2.5 µg/mL (≈ 5.03 µM)

**Q.** And the MIC (Past. multocida PA1)?
**A.** 0.625 µg/mL (≈ 1.26 µM)

**Q.** What about the MIC (E. coli ESS) of the same molecule?
**A.** 0.5 µg/mL (≈ 1.01 µM)

**Q.** And the MIC [7]?
**A.** > 100 µg/mL

**Q.** What about the MIC [8] of the same molecule?
**A.** 0.25 µg/mL (≈ 0.503 µM)

**Q.** And the MIC [9]?
**A.** 0.25 µg/mL (≈ 0.503 µM)

**Q.** What about the MIC (M. pneumoniae ATCC 15492) of the same molecule?
**A.** 1 µg/mL (≈ 2.01 µM)

**Q.** What about the MIC (K. aerogenes A) of the same molecule?
**A.** > 100 µg/mL

**Q.** And the MIC (M. suipneumoniae HK(2))?
**A.** 0.25 µg/mL (≈ 0.503 µM)

**Q.** And the MIC (E. coli NCTC 10418 [10])?
**A.** > 100 µg/mL

**Q.** And the MIC (Strep. agalactiae SPA1)?
**A.** 0.625 µg/mL (≈ 1.26 µM)

**Q.** And the MIC (M. suipneumoniae MS16)?
**A.** 0.1 µg/mL (≈ 0.201 µM)

**Q.** And the MIC (Staph. aureus W2827)?
**A.** 2.5 µg/mL (≈ 5.03 µM)

**Q.** What about the MIC [11] of the same molecule?
**A.** 0.5 µg/mL (≈ 1.01 µM)

**Q.** What about the MIC [12] of the same molecule?
**A.** 0.05 µg/mL (≈ 0.101 µM)

**Q.** And the MIC (M. suipneumoniae Str. 11)?
**A.** 0.25 µg/mL (≈ 0.503 µM)

**Q.** And the MIC (Bord. bronchiseptica BO9)?
**A.** 5 µg/mL (≈ 10.1 µM)

**Q.** And the MIC [13]?
**A.** 0.25 µg/mL (≈ 0.503 µM)

**Q.** What about the MIC (M. suipneumoniae LABER) of the same molecule?
**A.** 0.25 µg/mL (≈ 0.503 µM)

**Q.** And the MIC (Sarcina lutea 8340)?
**A.** > 100 µg/mL

**Q.** What about the MIC (E. coli NCTC 10418 [14]) of the same molecule?
**A.** > 80 µg/mL

**Q.** And the MIC (Bacillus subtilis 6633)?
**A.** 1 µg/mL (≈ 2.01 µM)

**Q.** What about the MIC (M. hyorhinis ATCC 23234) of the same molecule?
**A.** 0.25 µg/mL (≈ 0.503 µM)

**Q.** What about the MIC (Strep. dysgalactiae SPD1) of the same molecule?
**A.** 0.312 µg/mL (≈ 0.628 µM)

**Q.** What about the MIC (P. mirabilis 889) of the same molecule?
**A.** 50 µg/mL (≈ 101 µM)

**Q.** What about the MIC [15] of the same molecule?
**A.** > 80 µg/mL

**Q.** What about the MIC (Past. multocida PA2) of the same molecule?
**A.** 0.625 µg/mL (≈ 1.26 µM)
